According to ChEMBL document CHEMBL4831556, “Discovery of a Novel Potent and Selective Calcium Release-Activated Calcium Channel Inhibitor: 2,6-Difluoro-N-(2'-methyl-3'-(4-methyl-5-oxo-4,5-dihydro-1,3,4-oxadiazol-2-yl)-[1,1'-biphenyl]-4-yl)benzamide. Structure-Activity Relationship and Preclinical Characterization” (J Med Chem, 2021):
Values belong to the molecule of their own block, whether it stands above or below them.

Tests used:
ORAI1/STIM1 [1] = target: T1, ORAI1/STIM1 (Homo sapiens, UniProt Q13586+Q96D31); experiment: Inhibition of Orai1/STIM1 (unknown origin); type: protein-complex assay
[2] = target: Protein orai-2/Stromal interaction molecule 1 (Homo sapiens, UniProt Q13586+Q96SN7); experiment: Inhibition of Orai2/STIM1 (unknown origin); type: protein-complex assay
in vivo [3] = details: DBA/1J, mouse, po, 0.75 mg/kg
[4] = Tmax in collagen-induced rheumatoid arthritis DBA/1J mouse model at 0.75 mg/kg, po administered once daily for 15 days; type: ADME, organism-based; details: in vivo, time 15 day
[5] = AUClast in collagen-induced rheumatoid arthritis DBA/1J mouse model at 0.75 mg/kg, po administered once daily for 15 days; type: ADME, organism-based; set-up: route oral, time 15 day, dose 0.75 mg/kg; details: in vivo
in vivo [6] = details: DBA/1J, mouse, po, 0.75 mg/kg; remark: listed apart in the source
Description: Cmax in collagen-induced rheumatoid arthritis DBA/1J mouse model at 0.75 mg/kg, po administered once daily for 15 days

[7] = Tmax in collagen-induced rheumatoid arthritis DBA/1J mouse model at 0.75 mg/kg, po administered once daily for 15 days in presence of 3 mg/kg compound 36; type: ADME, organism-based; details: in vivo, time 15 day
[8] = AUClast in collagen-induced rheumatoid arthritis DBA/1J mouse model at 0.75 mg/kg, po administered once daily for 15 days in presence of 3 mg/kg compound 36; type: ADME, organism-based; set-up: route oral, dose 0.75 mg/kg, time 15 day; details: in vivo
ORAI1/STIM1 [9] = target: T1, ORAI1/STIM1; experiment: Inhibition of Orai1/STIM1 (unknown origin) expressed in HEK293 cells assessed as reduction in Ca2+-release activated Ca2+ entry current by manual patch clamp based electrophysiological method; type: cell-based
[10] = Inhibition of SOCE in human Jurkat E6.1 cells preincubated for 10 to 30 mins in presence of thapsigargin followed by calcium chloride addition and measured after 10 mins by FLIPR-tetra analysis; type: cell-based
[11] = Cmax in Lewis rat at 1 mg/kg, iv measured upto 24 hrs by LC-MS/MS analysis; type: ADME, organism-based; set-up: route intravenous, dose 1 mg/kg, time <=24; details: in vivo
[12] = Cmax in Lewis rat at 10 mg/kg, po measured upto 24 hrs by LC-MS/MS analysis; type: ADME, organism-based; set-up: route oral, dose 10 mg/kg, time <=24; details: in vivo
[13] = Tmax in Lewis rat at 10 mg/kg, po measured upto 24 hrs by LC-MS/MS analysis; type: ADME, organism-based; details: in vivo
[14] = Tmax in Lewis rat at 1 mg/kg, iv measured upto 24 hrs by LC-MS/MS analysis; type: ADME, organism-based; details: in vivo
[15] = Half life in Lewis rat at 10 mg/kg, po measured upto 24 hrs by LC-MS/MS analysis; type: ADME, organism-based; details: in vivo
[16] = Volume of distribution at steady state in Lewis rat at 1 mg/kg, iv measured upto 24 hrs by LC-MS/MS analysis; type: ADME, organism-based; details: in vivo, read-out: Vdss
[17] = Half life in Lewis rat at 1 mg/kg, iv measured upto 24 hrs by LC-MS/MS analysis; type: ADME, organism-based; details: in vivo
[18] = Oral bioavailability in Lewis rat at 10 mg/kg measured upto 24 hrs by LC-MS/MS analysis; type: ADME, organism-based; details: in vivo
[19] = AUClast in Lewis rat at 1 mg/kg, iv measured upto 24 hrs by LC-MS/MS analysis; type: ADME, organism-based; set-up: route intravenous, dose 1 mg/kg, time <=24; details: in vivo
[20] = Clearance in Lewis rat at 1 mg/kg, iv measured upto 24 hrs by LC-MS/MS analysis; type: ADME, organism-based; details: in vivo
[21] = AUClast in Lewis rat at 10 mg/kg, po measured upto 24 hrs by LC-MS/MS analysis; type: ADME, organism-based; set-up: route oral, dose 10 mg/kg, time <=24; details: in vivo
[22] = Inhibition of SOCE in rat RBL-2H3 cells preincubated for 5 mins with thapsigargin followed by calcium chloride addition and measured after 5 mins by Fura-2AM dye based analysis; type: cell-based
ORAI1/STIM1 [23] = target: T1, ORAI1/STIM1; experiment: Inhibition of human STIM1/Orai1 expressed in HEK293 cells assessed as reduction in Orai1 current by electrophysiological method; type: cell-based
[24] = target: Stromal interaction molecule 1/Protein orai-3 (Homo sapiens, UniProt Q13586+Q9BRQ5); experiment: Inhibition of human STIM1/Orai3 expressed in HEK293 cells assessed as reduction in Orai3 current by electrophysiological method; type: cell-based

T1 sequence (Q96D31 whole entry): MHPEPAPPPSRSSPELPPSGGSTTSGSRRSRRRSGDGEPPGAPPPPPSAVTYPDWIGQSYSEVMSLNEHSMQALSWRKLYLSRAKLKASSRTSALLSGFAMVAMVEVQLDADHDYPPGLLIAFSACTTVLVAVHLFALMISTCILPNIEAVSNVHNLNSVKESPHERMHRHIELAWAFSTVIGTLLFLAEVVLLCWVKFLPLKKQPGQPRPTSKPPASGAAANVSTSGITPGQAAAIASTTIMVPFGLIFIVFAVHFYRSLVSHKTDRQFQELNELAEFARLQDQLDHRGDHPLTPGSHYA
T1 sequence (Q13586 whole entry): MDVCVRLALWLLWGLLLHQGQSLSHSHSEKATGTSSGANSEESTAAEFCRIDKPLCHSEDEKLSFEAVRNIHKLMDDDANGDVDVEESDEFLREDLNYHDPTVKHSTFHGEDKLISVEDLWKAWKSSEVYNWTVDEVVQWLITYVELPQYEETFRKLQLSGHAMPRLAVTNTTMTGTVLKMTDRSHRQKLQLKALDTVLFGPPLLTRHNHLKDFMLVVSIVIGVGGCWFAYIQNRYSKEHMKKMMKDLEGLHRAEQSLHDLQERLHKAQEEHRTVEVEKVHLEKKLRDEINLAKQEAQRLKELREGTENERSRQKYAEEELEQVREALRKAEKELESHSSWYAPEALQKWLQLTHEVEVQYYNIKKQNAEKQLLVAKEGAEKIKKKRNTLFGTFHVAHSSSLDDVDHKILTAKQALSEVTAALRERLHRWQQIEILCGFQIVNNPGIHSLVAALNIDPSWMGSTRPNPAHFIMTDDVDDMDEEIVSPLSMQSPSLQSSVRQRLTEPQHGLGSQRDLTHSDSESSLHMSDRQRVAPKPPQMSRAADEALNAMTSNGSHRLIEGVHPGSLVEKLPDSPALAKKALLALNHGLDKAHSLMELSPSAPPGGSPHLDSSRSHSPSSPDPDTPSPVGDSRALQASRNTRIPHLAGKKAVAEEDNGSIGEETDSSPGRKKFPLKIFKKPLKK
Protein orai-2/Stromal interaction molecule 1, sequence (Q96SN7 whole entry): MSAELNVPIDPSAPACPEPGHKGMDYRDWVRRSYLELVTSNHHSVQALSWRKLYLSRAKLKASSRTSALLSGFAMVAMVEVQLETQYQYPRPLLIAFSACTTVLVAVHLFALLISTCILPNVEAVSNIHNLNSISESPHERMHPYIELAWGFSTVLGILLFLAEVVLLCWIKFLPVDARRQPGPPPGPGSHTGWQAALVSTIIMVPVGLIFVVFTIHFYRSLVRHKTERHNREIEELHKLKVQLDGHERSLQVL
Protein orai-2/Stromal interaction molecule 1, sequence (Q13586 whole entry): as the sequence (Q13586 whole entry) above

SMILES: Cc1cccc(F)c1C(=O)Nc1cnc(-c2cc3c(cc2Cl)OC(F)(F)O3)cn1 [ZEGOCRACTIN]
- IC50 (ORAI1/STIM1 [1]): 119 nM
- IC50 [2]: 895 nM

SMILES: CN(Cc1cnc2nc(N)nc(N)c2n1)c1ccc(C(=O)N[C@@H](CCC(=O)O)C(=O)O)cc1 [METHOTREXATE]
- Cmax at 360 h (in vivo [3]): 200 nM
- Tmax [4]: 1 h
- AUC(0-t) at 360 h [5]: 0.4 µM·h
- Cmax at 360 h (in vivo [6]): 100 nM
- Tmax [7]: 1 h
- AUC(0-t) at 360 h [8]: 0.6 µM·h

SMILES: O=C(Nc1ccn(Cc2c(F)cccc2C(F)(F)F)n1)c1c(F)cccc1F
- IC50 (ORAI1/STIM1 [9]): 1000 nM

SMILES: Cc1ccc(-c2nn(C)c(=O)o2)cc1-c1ccc(NC(=O)c2c(F)cccc2F)cc1
- IC50 [10]: 140 nM
- Cmax [11]: 4400 nM
- Cmax [12]: 4100 nM
- Tmax [13]: 4.8 h
- Tmax [14]: 4.8 min
- half-life [15]: 15.2 h
- Vd [16]: 0.7 L/kg
- half-life [17]: 7 h
- bioavailability [18]: 28%
- AUC(0-t) at 24 h [19]: 27 µM·h
- clearance [20]: 1.4 mL/min/kg
- AUC(0-t) at 24 h [21]: 75 µM·h

SMILES: Cc1ccc(C2=NOC(C)(C)C2=O)cc1-c1cnc(NC(=O)c2c(F)cccc2F)cn1
- AUC(0-t) at 24 h [21]: 13 µM·h

Other lines, results leading:

- IC50 [22]: 490 nM
SMILES: O=C(Nc1ccc(-n2nc(C(F)(F)F)cc2C(F)(F)F)cc1)c1ccncc1F

- AUC(0-t) at 24 h [21]: 0.93 µM·h
SMILES: O=C(Nc1ccc(-c2cc(C(F)(F)F)ccc2Cl)cc1)c1c(F)cccc1F

- IC50 (ORAI1/STIM1 [23]): 4000 nM
- IC50 [24]: 4000 nM
SMILES: O=C(Nc1ccn(Cc2ccc(O)cc2C(F)(F)F)n1)c1c(F)cccc1F
